Values of other authors, collected in US9957484B2, “Methods for promoting cell reprogramming” (Sanford-Burnham Medical Research Institute, priority 2011, dated 2018).

Tests used:
Settings in all cases: kind of value not given; cited from earlier work
Cdk1 = Cdk1 (Homo sapiens, UniProt P06493)
PKCγ = PKCγ (Homo sapiens, UniProt P05129)
Lck = Lck (Homo sapiens, UniProt P06239)
Chk2 = Chk2 (Homo sapiens, UniProt O96017)
PKCδ = PKCδ (Homo sapiens, UniProt Q05655)
MAPKAP kinase-2 = MAPKAP kinase-2 (Homo sapiens, UniProt P49137)
PDK1 = PDK1 (Homo sapiens, UniProt O15530)
PDK1, sequence (O15530 whole entry): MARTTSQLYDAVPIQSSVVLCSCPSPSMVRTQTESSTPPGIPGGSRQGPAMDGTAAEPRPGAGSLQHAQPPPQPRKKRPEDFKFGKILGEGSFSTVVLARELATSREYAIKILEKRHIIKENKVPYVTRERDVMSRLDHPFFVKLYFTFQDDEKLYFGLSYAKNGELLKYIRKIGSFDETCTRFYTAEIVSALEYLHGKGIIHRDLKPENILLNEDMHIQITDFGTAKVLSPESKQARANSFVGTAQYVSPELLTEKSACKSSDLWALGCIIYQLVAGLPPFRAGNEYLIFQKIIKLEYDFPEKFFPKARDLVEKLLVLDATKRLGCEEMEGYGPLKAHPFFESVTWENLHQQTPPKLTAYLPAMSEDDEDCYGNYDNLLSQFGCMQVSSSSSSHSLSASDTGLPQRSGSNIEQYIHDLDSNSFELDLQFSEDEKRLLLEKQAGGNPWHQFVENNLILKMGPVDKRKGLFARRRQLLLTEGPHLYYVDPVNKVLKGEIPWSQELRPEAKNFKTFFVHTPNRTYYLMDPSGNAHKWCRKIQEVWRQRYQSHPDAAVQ

[1] = target: Cdc25C-associated protein kinase 1 (Homo sapiens, UniProt P27448)
Cdc25C-associated protein kinase 1, sequence (P27448 whole entry): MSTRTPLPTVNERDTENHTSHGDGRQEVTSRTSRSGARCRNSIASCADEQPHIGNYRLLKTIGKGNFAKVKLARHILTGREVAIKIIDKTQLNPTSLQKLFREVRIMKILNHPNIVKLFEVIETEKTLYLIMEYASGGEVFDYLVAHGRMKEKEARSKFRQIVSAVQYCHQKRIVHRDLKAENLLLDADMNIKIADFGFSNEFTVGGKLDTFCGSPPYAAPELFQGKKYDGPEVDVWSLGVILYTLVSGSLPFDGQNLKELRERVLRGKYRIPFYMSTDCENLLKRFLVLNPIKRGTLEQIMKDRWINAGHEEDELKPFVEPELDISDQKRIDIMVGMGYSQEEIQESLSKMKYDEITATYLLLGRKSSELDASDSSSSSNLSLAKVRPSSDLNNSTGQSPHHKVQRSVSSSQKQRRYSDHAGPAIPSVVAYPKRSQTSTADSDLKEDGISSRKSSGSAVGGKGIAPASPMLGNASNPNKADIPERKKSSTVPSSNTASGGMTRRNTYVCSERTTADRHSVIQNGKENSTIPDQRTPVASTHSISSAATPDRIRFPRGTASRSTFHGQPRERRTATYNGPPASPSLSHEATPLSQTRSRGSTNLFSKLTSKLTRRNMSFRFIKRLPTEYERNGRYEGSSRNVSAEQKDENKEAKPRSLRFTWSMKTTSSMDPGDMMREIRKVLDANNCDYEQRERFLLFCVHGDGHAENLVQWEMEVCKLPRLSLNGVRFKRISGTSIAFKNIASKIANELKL

PKCα = PKCα (Homo sapiens, UniProt P17252)
Cdk5/p25 = Cdk5/p25 (Homo sapiens, UniProt Q00535)
Chk1 = Chk1 (Homo sapiens, UniProt O14757)
Chk1, sequence (O14757 whole entry, species assumed): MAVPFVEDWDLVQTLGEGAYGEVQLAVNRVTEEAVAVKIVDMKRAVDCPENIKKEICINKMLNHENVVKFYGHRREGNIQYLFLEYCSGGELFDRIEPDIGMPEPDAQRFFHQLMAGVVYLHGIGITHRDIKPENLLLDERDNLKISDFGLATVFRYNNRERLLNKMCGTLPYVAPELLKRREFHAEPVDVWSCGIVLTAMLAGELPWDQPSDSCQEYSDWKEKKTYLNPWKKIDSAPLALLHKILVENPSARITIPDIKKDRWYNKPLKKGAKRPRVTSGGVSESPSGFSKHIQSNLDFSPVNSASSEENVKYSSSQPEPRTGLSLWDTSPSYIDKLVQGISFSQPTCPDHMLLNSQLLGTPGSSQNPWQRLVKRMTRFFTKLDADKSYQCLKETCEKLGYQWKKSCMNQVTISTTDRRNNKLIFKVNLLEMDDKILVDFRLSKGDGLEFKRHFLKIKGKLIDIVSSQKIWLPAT

PKCβ = PKCβ (Homo sapiens, UniProt P05771)
PKCβ, sequence (P05771 whole entry, species assumed): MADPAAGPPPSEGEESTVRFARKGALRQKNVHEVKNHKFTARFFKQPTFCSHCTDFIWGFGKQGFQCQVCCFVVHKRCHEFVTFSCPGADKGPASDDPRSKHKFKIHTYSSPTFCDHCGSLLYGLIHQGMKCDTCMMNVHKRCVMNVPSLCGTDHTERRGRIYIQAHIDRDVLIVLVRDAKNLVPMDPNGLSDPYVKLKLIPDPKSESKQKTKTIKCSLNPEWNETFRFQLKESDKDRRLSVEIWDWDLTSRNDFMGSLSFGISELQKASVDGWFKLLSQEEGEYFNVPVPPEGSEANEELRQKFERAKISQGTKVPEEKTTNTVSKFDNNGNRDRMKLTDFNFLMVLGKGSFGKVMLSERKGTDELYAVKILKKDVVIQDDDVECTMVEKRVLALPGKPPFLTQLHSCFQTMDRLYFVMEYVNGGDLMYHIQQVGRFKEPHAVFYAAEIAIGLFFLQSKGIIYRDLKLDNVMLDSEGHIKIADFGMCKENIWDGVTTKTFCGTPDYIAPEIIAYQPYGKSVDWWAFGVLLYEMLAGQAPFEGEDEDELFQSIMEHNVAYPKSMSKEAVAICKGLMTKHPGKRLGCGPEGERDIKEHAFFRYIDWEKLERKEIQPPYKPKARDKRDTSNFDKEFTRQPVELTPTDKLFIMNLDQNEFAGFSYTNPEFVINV

PAK4 = PAK4 (Homo sapiens, UniProt O96013)
PAK4, sequence (O96013 whole entry, species assumed): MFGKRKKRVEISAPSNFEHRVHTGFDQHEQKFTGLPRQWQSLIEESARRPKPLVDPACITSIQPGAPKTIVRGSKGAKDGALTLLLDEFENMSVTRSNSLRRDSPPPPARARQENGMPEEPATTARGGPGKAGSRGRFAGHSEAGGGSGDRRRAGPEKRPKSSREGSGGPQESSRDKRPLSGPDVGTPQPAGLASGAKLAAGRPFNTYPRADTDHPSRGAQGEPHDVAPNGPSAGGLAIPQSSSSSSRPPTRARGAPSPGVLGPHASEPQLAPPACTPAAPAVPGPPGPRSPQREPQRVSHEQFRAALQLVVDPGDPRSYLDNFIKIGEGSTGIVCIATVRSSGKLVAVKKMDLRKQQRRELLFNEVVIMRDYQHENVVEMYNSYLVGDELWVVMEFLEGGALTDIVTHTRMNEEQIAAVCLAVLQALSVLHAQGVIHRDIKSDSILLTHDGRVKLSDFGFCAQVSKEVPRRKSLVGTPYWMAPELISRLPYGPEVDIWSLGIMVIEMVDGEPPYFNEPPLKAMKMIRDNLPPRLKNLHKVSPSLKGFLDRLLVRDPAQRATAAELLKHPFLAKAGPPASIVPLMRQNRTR

MEK1 = MEK1 (Homo sapiens, UniProt Q02750)
MEK1, sequence (Q02750 whole entry, species assumed): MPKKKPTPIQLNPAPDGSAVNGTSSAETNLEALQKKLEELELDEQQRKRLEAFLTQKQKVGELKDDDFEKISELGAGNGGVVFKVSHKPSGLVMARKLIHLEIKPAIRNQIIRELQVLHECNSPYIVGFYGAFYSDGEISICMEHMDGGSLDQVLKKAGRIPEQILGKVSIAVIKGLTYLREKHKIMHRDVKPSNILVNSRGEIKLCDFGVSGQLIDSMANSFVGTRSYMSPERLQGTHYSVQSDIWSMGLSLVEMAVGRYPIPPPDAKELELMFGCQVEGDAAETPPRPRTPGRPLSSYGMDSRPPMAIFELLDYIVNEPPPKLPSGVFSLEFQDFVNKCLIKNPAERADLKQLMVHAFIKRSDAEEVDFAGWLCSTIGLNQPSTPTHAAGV

myosin II heavy chain = test system: myosin II heavy chain

PKCδ, sequence (Q05655 whole entry): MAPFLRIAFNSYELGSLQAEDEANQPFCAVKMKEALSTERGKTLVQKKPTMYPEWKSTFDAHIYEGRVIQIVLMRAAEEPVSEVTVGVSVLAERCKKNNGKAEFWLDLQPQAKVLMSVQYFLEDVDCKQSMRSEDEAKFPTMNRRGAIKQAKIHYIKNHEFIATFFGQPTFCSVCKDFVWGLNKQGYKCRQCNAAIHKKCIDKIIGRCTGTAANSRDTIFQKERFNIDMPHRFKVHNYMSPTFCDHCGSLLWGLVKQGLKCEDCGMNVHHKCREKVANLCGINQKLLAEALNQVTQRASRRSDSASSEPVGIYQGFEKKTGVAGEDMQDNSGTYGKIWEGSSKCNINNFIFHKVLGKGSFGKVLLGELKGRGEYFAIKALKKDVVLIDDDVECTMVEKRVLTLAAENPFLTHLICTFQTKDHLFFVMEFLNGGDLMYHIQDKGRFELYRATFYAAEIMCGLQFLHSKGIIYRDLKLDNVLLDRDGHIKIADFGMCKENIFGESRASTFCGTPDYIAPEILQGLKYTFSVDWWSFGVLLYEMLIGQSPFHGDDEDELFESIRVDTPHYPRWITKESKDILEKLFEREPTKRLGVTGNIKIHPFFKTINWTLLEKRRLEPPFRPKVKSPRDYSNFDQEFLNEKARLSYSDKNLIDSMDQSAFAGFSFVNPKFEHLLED

| Compound | Potential Targets: Cdk1 (Cdk1) [nM] | Potential Targets: PKCγ (PKCγ) [nM] | Potential Targets: Lck (Lck) [nM] | Potential Targets: Chk2 (Chk2) | Potential Targets: PKCδ (PKCδ) [nM] | Potential Targets: MAPKAP kinase-2 (MAPKAP kinase-2) [nM] | Potential Targets: PDK1 (PDK1) [nM] | Potential Targets: Cdc25C-associated protein kinase 1 [1] [nM] | Potential Targets: PKCα (PKCα) [nM] | Potential Targets: Cdk5/p25 (Cdk5/p25) [nM] | Potential Targets: Chk1 (Chk1) [nM] | Potential Targets: PKCβ (PKCβ) [nM] | Potential Targets: PAK4 (PAK4) [nM] | Potential Targets: MEK1 (MEK1) | Potential Targets: myosin II heavy chain (myosin II heavy chain) |
| --- | --- | --- | --- | --- | --- | --- | --- | --- | --- | --- | --- | --- | --- | --- | --- |
| CN[C@@H]1C[C@H]2O[C@@](C)([C@@H]1OC)n1c3ccccc3c3c4c(c5c6ccccc6n2c5c31)C(=O)N[C@@H]4O [BIM-0207189, UCN-01] | 50 | 30 | 50 | 1.04 μM for Chk1, Cdc25C- | 590 | 95 | 33 | 27 | 9 | 150 | 7 | 34 | 50 | – | – |
| c1nc2nc(Nc3ccc(N4CCOCC4)cc3)nc(NC3CCCCC3)c2[nH]1 [BIM-0207192, Reversine] | – | – | – | – | – | – | – | – | – | – | – | – | – | MEK1 (8 nM), myosin II heavy | chain (10 nM), Aurora kinases |
